In ChEMBL document CHEMBL1148480, “Structure-activity studies of orexin a and orexin B at the human orexin 1 and orexin 2 receptors led to orexin 2 receptor selective and orexin 1 receptor preferring ligands” (J Med Chem, 2004) one finds EC50 data, which are given here for 15 molecules.

Non-standard residues stand in square brackets, D forms with d. Residues, ends and D or L forms follow the SMILES beside them. pGlu = O=C1CC[C@@H](C(=O)O)N1; Abu = CC[C@H](N)C(=O)O; Ahx = NCCCCCC(=O)O

In the assay the target is T1, Orexin/Hypocretin receptor type 1 (Homo sapiens, UniProt O43613).
T1 sequence (O43613 whole entry): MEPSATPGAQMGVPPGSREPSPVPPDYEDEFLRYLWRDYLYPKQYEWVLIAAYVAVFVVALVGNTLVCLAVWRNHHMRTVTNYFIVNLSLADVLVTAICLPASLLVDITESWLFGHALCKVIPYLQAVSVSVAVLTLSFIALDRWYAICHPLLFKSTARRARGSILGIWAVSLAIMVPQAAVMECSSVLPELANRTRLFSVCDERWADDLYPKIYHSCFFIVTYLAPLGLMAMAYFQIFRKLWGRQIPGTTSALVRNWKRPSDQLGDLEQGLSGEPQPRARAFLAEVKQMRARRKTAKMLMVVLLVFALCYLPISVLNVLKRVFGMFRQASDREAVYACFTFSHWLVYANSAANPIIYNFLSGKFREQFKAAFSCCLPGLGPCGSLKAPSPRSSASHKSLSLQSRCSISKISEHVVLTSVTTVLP
In words: Effective agonist concentration to human orexin receptor type 1 determined using the Xlfit program. The assay is classed as functional.
`CC[C@H](C)[C@H](NC(=O)[C@H](C)NC(=O)[C@H](C)NC(=O)[C@H](C)NC(=O)[C@H](Cc1cnc[nH]1)NC(=O)[C@H](CC(N)=O)NC(=O)CNC(=O)[C@H](CO)NC(=O)[C@H](C)NC(=O)[C@H](CCC(N)=O)NC(=O)[C@H](CC(C)C)NC(=O)[C@H](CC(C)C)NC(=O)[C@H](CCCNC(=N)N)NC(=O)[C@H](CCC(N)=O)NC(=O)[C@H](CC(C)C)NC(=O)[C@H](CCCNC(=N)N)NC(=O)CNC(=O)[C@H](CCC(N)=O)NC(=O)[C@H](CC(C)C)NC(=O)CN)C(=O)N[C@@H](CC(C)C)C(=O)N[C@H](C(=O)N[C@@H](CCSC)C(=O)O)[C@@H](C)O` (H-GLQGRLQRLLQASGNHAAAILTM-OH) showed an EC50 of over 1000 µM.

As to `CC[C@H](C)[C@H](NC(=O)CNC(=O)[C@H](C)NC(=O)[C@H](C)NC(=O)[C@H](Cc1c[nH]cn1)NC(=O)[C@H](CC(N)=O)NC(=O)CNC(=O)[C@H](CO)NC(=O)[C@H](C)NC(=O)[C@H](CCC(N)=O)NC(=O)[C@H](CC(C)C)NC(=O)[C@@H]1CCCN1C(=O)[C@H](CCCN=C(N)N)NC(=O)[C@H](CCC(N)=O)NC(=O)[C@H](CC(C)C)NC(=O)[C@H](CCCN=C(N)N)NC(=O)CNC(=O)[C@H](CCC(N)=O)NC(=O)[C@H](CC(C)C)NC(=O)CN)C(=O)N[C@@H](CC(C)C)C(=O)N[C@H](C(=O)N[C@@H](CCSC)C(N)=O)[C@@H](C)O` (H-GLQGRLQRPLQASGNHAAGILTM-NH2), the EC50 was over 1000 µM.

For the molecule `CC[C@H](C)[C@H](NC(=O)CNC(=O)[C@H](C)NC(=O)[C@H](C)NC(=O)[C@H](Cc1cnc[nH]1)NC(=O)[C@H](CC(N)=O)NC(=O)CNC(=O)[C@H](CO)NC(=O)[C@H](C)NC(=O)[C@H](CCC(N)=O)NC(=O)[C@H](CC(C)C)NC(=O)[C@H](CC(C)C)NC(=O)[C@H](CCCNC(=N)N)NC(=O)[C@H](CCC(N)=O)NC(=O)[C@@H]1CCCN1C(=O)[C@H](CCCNC(=N)N)NC(=O)CNC(=O)[C@H](CCC(N)=O)NC(=O)[C@H](CC(C)C)NC(=O)CN)C(=O)N[C@@H](CC(C)C)C(=O)N[C@H](C(=O)N[C@@H](CCSC)C(N)=O)[C@@H](C)O` (H-GLQGRPQRLLQASGNHAAGILTM-NH2), the EC50 was over 1000 µM.

Consider `CC[C@H](C)[C@H](NC(=O)CNC(=O)[C@H](C)NC(=O)[C@H](C)NC(=O)[C@H](Cc1c[nH]cn1)NC(=O)[C@H](CC(N)=O)NC(=O)CNC(=O)[C@H](CO)NC(=O)[C@H](C)NC(=O)[C@H](CCC(N)=O)NC(=O)[C@H](CC(C)C)NC(=O)[C@H](CC(C)C)NC(=O)[C@H](CCCN=C(N)N)NC(=O)[C@H](CCC(N)=O)NC(=O)[C@H](CC(C)C)NC(=O)[C@H](CCCN=C(N)N)NC(=O)[C@@H]1CCCN1C(=O)[C@H](CCC(N)=O)NC(=O)[C@H](CC(C)C)NC(=O)CN)C(=O)N[C@@H](CC(C)C)C(=O)N[C@H](C(=O)N[C@@H](CCSC)C(N)=O)[C@@H](C)O` (H-GLQPRLQRLLQASGNHAAGILTM-NH2), for which the EC50 came out at 4.46 µM.

For the molecule `CC[C@H](C)[C@H](NC(=O)CNC(=O)[C@H](C)NC(=O)[C@H](C)NC(=O)[C@H](Cc1c[nH]cn1)NC(=O)[C@H](CC(N)=O)NC(=O)CN)C(=O)N[C@@H](CC(C)C)C(=O)N[C@H](C(=O)N[C@@H](CC(C)C)C(N)=O)[C@@H](C)O` (H-GNHAAGILTL-NH2), the EC50 is over 1000 µM.

As to `CC[C@H](C)[C@H](NC(=O)CNC(=O)[C@H](C)NC(=O)[C@H](C)NC(=O)[C@H](Cc1cnc[nH]1)NC(=O)[C@H](CC(N)=O)NC(=O)CNC(=O)[C@H](CO)NC(=O)[C@H](C)NC(=O)[C@H](CCC(N)=O)NC(=O)[C@H](CC(C)C)NC(=O)[C@H](CC(C)C)NC(=O)[C@H](CCCNC(=N)N)NC(=O)[C@H](CCC(N)=O)NC(=O)[C@H](CC(C)C)NC(=O)[C@H](CCCNC(=N)N)NC(=O)CNC(=O)[C@H](CCC(N)=O)NC(=O)[C@@H]1CCCN1C(=O)CN)C(=O)N[C@@H](CC(C)C)C(=O)N[C@H](C(=O)N[C@@H](CCSC)C(N)=O)[C@@H](C)O` (H-GPQGRLQRLLQASGNHAAGILTM-NH2), the EC50 worked out at 1.7 µM.

As for `CC[C@H](C)[C@H](NC(=O)CNC(=O)[C@H](C)NC(=O)[C@H](C)NC(=O)[C@@H](N)Cc1cnc[nH]1)C(=O)N[C@@H](CC(C)C)C(=O)N[C@H](C(=O)N[C@@H](CC(C)C)C(N)=O)[C@@H](C)O` (H-HAAGILTL-NH2), the EC50 is over 1000 µM.

The molecule `CC[C@H](C)[C@H](NC(=O)CNC(=O)[C@H](C)NC(=O)[C@H](C)NC(=O)[C@H](Cc1c[nH]cn1)NC(=O)[C@H](CC(N)=O)NC(=O)CNC(=O)[C@H](C)NC(=O)CNC(=O)[C@H](Cc1c[nH]cn1)NC(=O)[C@H](CC(C)C)NC(=O)[C@@H](N)CC(C)C)C(=O)N[C@@H](CC(C)C)C(=O)N[C@H](C(=O)N[C@@H](CC(C)C)C(N)=O)[C@@H](C)O` (H-LLHGAGNHAAGILTL-NH2) gave an EC50 of over 1000 µM.

As for `CC[C@H](C)[C@H](NC(=O)CNC(=O)[C@H](C)NC(=O)[C@H](C)NC(=O)[C@H](Cc1cnc[nH]1)NC(=O)[C@H](CC(N)=O)NC(=O)CNC(=O)[C@H](CO)NC(=O)[C@H](C)NC(=O)[C@H](CCC(N)=O)NC(=O)[C@H](CC(C)C)NC(=O)[C@@H](N)CC(C)C)C(=O)N[C@@H](CC(C)C)C(=O)N[C@H](C(=O)N[C@@H](CCSC)C(N)=O)[C@@H](C)O` (H-LLQASGNHAAGILTM-NH2), the EC50 was over 1000 µM.

In turn, `CC[C@H](C)[C@H](NC(=O)CNC(=O)[C@H](C)NC(=O)[C@H](C)NC(=O)[C@H](Cc1c[nH]cn1)NC(=O)[C@H](CC(N)=O)NC(=O)CNC(=O)[C@H](C)NC(=O)CNC(=O)[C@H](Cc1c[nH]cn1)NC(=O)[C@H](CC(C)C)NC(=O)[C@H](CC(C)C)NC(=O)[C@H](CCC(=O)O)NC(=O)[C@H](Cc1ccc(O)cc1)NC(=O)[C@H](CC(C)C)NC(=O)[C@H](CCCN=C(N)N)NC(=O)[C@H](CS)NC(=O)[C@H](CO)NC(=O)[C@H](CS)NC(=O)[C@@H](NC(=O)[C@H](CCCCN)NC(=O)[C@H](CCC(N)=O)NC(=O)[C@H](CCCN=C(N)N)NC(=O)[C@H](CS)NC(=O)[C@H](CS)NC(=O)[C@H](CC(=O)O)NC(=O)[C@@H]1CCCN1)[C@@H](C)O)C(=O)N[C@@H](CC(C)C)C(=O)N[C@H](C(=O)N[C@@H](CC(C)C)C(N)=O)[C@@H](C)O` (H-PDCCRQKTCSCRLYELLHGAGNHAAGILTL-NH2) had an EC50 of 0.64 µM.

Molecule `CC[C@H](C)[C@H](NC(=O)CNC(=O)[C@H](C)NC(=O)[C@H](C)NC(=O)[C@H](Cc1cnc[nH]1)NC(=O)[C@H](CC(N)=O)NC(=O)CNC(=O)[C@H](CO)NC(=O)[C@H](C)NC(=O)[C@H](CCC(N)=O)NC(=O)[C@H](CC(C)C)NC(=O)[C@H](CC(C)C)NC(=O)[C@H](CCCNC(=N)N)NC(=O)[C@H](CCC(N)=O)NC(=O)[C@H](CC(C)C)NC(=O)[C@H](CCCNC(=N)N)NC(=O)CNC(=O)[C@@H](N)CCC(N)=O)C(=O)N[C@@H](CC(C)C)C(=O)N[C@H](C(=O)N[C@@H](CCSC)C(N)=O)[C@@H](C)O` (H-QGRLQRLLQASGNHAAGILTM-NH2) came in with an EC50 of 22.2 µM.

As for `CC[C@H](NC(=O)[C@H](CO)NC(=O)[C@H](CS)NC(=O)[C@@H](NC(=O)[C@H](CCCCN)NC(=O)[C@H](CCC(N)=O)NC(=O)[C@H](CCCN=C(N)N)NC(=O)[C@H](CC)NC(=O)[C@H](CS)NC(=O)[C@H](CC(=O)O)NC(=O)[C@@H]1CCCN1C(=O)[C@H](CC(C)C)NC(=O)[C@@H]1CCCN1C(=O)[C@@H]1CCC(=O)N1)[C@@H](C)O)C(=O)N[C@@H](CCCN=C(N)N)C(=O)N[C@@H](CC(C)C)C(=O)N[C@@H](Cc1ccc(O)cc1)C(=O)N[C@@H](CCC(=O)O)C(=O)N[C@@H](CC(C)C)C(=O)N[C@@H](CC(C)C)C(=O)N[C@@H](Cc1c[nH]cn1)C(=O)NCC(=O)N[C@@H](C)C(=O)NCC(=O)N[C@@H](CC(N)=O)C(=O)N[C@@H](Cc1c[nH]cn1)C(=O)N[C@@H](C)C(=O)N[C@@H](C)C(=O)NCC(=O)N[C@H](C(=O)N[C@@H](CC(C)C)C(=O)N[C@H](C(=O)N[C@@H](CC(C)C)C(=O)O)[C@@H](C)O)[C@@H](C)CC` ([pGlu]PLPDC[Abu]RQKTCS[Abu]RLYELLHGAGNHAAGILTL-OH), it took 1.34 µM to reach a half-maximal effect (EC50).

In turn, `CC[C@H](C)[C@H](NC(=O)CNC(=O)[C@H](C)NC(=O)[C@H](C)NC(=O)[C@H](Cc1c[nH]cn1)NC(=O)[C@H](CC(N)=O)NC(=O)CNC(=O)[C@H](C)NC(=O)CNC(=O)[C@H](Cc1c[nH]cn1)NC(=O)[C@H](CC(C)C)NC(=O)[C@H](CC(C)C)NC(=O)CCCCCNC(=O)[C@H](CC(=O)O)NC(=O)[C@@H]1CCCN1C(=O)[C@H](CC(C)C)NC(=O)[C@@H]1CCCN1C(=O)[C@@H]1CCC(=O)N1)C(=O)N[C@@H](CC(C)C)C(=O)N[C@H](C(=O)N[C@@H](CC(C)C)C(=O)O)[C@@H](C)O` ([pGlu]PLPD[Ahx]LLHGAGNHAAGILTL-OH) had an EC50 of over 1000 µM.

Consider `CC[C@H](C)[C@H](NC(=O)CNC(=O)[C@H](C)NC(=O)[C@H](C)NC(=O)[C@H](Cc1cnc[nH]1)NC(=O)[C@H](CC(N)=O)NC(=O)CNC(=O)[C@H](C)NC(=O)CNC(=O)[C@H](Cc1cnc[nH]1)NC(=O)[C@H](CC(C)C)NC(=O)[C@H](CC(C)C)NC(=O)[C@H](CCC(=O)O)NC(=O)[C@H](Cc1ccc(O)cc1)NC(=O)[C@H](CC(C)C)NC(=O)[C@H](CCCNC(=N)N)NC(=O)CCCCCNC(=O)[C@H](CC(=O)O)NC(=O)[C@@H]1CCCN1C(=O)[C@H](CC(C)C)NC(=O)[C@@H]1CCCN1C(=O)[C@@H]1CCC(=O)N1)C(=O)N[C@@H](CC(C)C)C(=O)N[C@H](C(=O)N[C@@H](CC(C)C)C(=O)O)[C@@H](C)O` ([pGlu]PLPD[Ahx]RLYELLHGAGNHAAGILTL-OH), for which the response was half-maximal at 5.52 µM (EC50).

`CC[C@H](C)[C@H](NC(=O)CNC(=O)[C@H](C)NC(=O)[C@H](C)NC(=O)[C@H](Cc1c[nH]cn1)NC(=O)[C@H](CC(N)=O)NC(=O)CNC(=O)[C@H](CO)NC(=O)[C@H](C)NC(=O)[C@H](CCC(N)=O)NC(=O)[C@H](CC(C)C)NC(=O)[C@H](CC(C)C)NC(=O)[C@H](CCCN=C(N)N)NC(=O)[C@@H]1CCCN1C(=O)[C@H](CC(C)C)NC(=O)[C@H](CCCN=C(N)N)NC(=O)CNC(=O)[C@H](CCC(N)=O)NC(=O)[C@H](CC(C)C)NC(=O)CN)C(=O)N[C@@H](CC(C)C)C(=O)N[C@H](C(=O)N[C@@H](CCSC)C(N)=O)[C@@H](C)O` (stereo in doubt; form 1) showed an EC50 of 5.26 µM.
